Measured values as given in patent US20220048869A1, “PHENAZINE-BASED COMPOUND, ELECTROLYTIC LIQUID COMPRISING SAME FOR REDOX FLOW BATTERY, AND REDOX FLOW BATTERY” (LOTTE CHEMICAL CORPORATION, priority 2018, published 2022).
In brackets after ≈: the same amount, converted by molar mass.

Assay: Solubility (maximum soluble amount) in acetonitrile solution including 0.1 M TBAPF6
Assay type: physicochemical
Conditions: for solubility: acetonitrile solution including 0.1 M TBAPF6, organic solvent or mixture, maximum soluble amount in acetonitrile solution including TBAPF6 at 0.1 M
Method: Each of the phenazine-based compounds provided according to Example 1 and Comparative Example 1 was dissolved in an acetonitrile solution including TBAPF6 at a concentration of 0.1 M, and the maximum soluble amounts of the phenazine-based compounds were identified, and the results are shown in the following Table 1.

| solubility [mM] | fold higher solubility in a non-aqueous solvent than DMPZ (non-aqueous solvent, relative to DMPZ) | SMILES |
| --- | --- | --- |
| 50 (≈ 10.5 mg/mL) | – | CN1c2ccccc2N(C)c2ccccc21 [Comparative Example 1, 5,10-dimethyl-5,10-dihydrophenazine, reference compound] |
| 500 (≈ 149 mg/mL) | at least 10 fold | COCCN1c2ccccc2N(CCOC)c2ccccc21 [Example 1, 5,10-bis(2-methoxyethyl)-5,10-dihydrophenazine] |
